Reference: US11925194B2, “Antimicrobially active mixtures” (SYMRISE AG, priority 2017, dated 2024)

Legend:
[1] = tested on: S. cerevisiae; assay: Antimicrobial effect of extracts and fractions, citrate buffer pH 5; type: cell-based, Saccharomyces cerevisiae
Source text: For further examination of the antimicrobial effect of different extracts alone, i.e. without a combination with component (B) or fractions thereof according to the invention, exemplary extracts or fractions thereof such as described in Examples 1 to 4 were used. […] The samples were inoculated with 3.8×10^4 CFU/mL […].

[2] = tested on: C. albicans; assay: Germ load test of aroma and extract combinations, pure water pH 7; type: cell-based, Candida albicans; settings: 400 ppm in sample
Source text: (§1) In the scope of a further test, the antimicrobial effect of aroma and extract combinations was examined. […] For example, grape stone extract and the flavouring agent vanillic acid have a different effect against yeasts. In the combination, however, also an effect against fungi and an optimal effect against yeasts was observed. The pomegranate and red berry extract have a lower effect at pH 7 compared to pH 3 (cf. Example 5), the pomegranate extract eliminates S. cerevisiae in less than 14 days at 1000 mg/kg. In combination with Limonene-containing lemon oils, however, the effect can be increased for higher pH values.

[3] = tested on: Z. bailii; assay: as above; type: cell-based, Zygosaccharomyces bailii; settings: 400 ppm in sample
Source text: as §1

[4] = tested on: S. cerevisiae; assay: as above; type: cell-based, Saccharomyces cerevisiae; settings: 400 ppm in sample
Source text: as §1

Row | Structure (SMILES) | Reduction in the germination number of S. cerevisiae (in words) ([1]; 375 mg/kg, pH 5, 28 days) | Germination number S. cerevisiae after 28 days ([1]; dose 375 mg/kg, citrate buffer pH 5, after inoculation 3.80E+04) | Elimination of C. albicans in less than (time) [2] | Elimination of Z. bailii in less than (time) [3] | Elimination of S. cerevisiae in less than (time) [4]
1 | C/C=C/C=C/C(=O)[O-].[K+] [potassium sorbate] | did not show a significant reduction | 1.00E+03 CFU/mL |  |  | 
2 | COc1cc(C(=O)O)ccc1O [Vanillic acid] |  |  | < 24 h | < 24 h | < 14 days
